According to patent US20150105252A1, “SUBSTITUTED PYRAZOLES AS HERBICIDES” (E I DU PONT DE NEMOURS AND COMPANY, priority 2013, published 2015):

Assays:
morningglory [1] = experiment: Test A preemergence; assay type: in vivo, Ipomoea spp.; settings: preemergence; for Morningglory plant response rating (0 to 100 scale): 125 g ai/ha, visual injury approx. 10 days after treatment; for Morningglory plant response rating: 500 g ai/ha, visual injury after approx. 10 days, 0 to 100 scale (0 no effect, 100 complete control)
Procedure, shortened: (§1)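 Seeds were sown in a loam soil–sand blend and given a directed soil spray preemergence; postemergence plants at 2–10 cm, one- to two-leaf stage, were sprayed with compound in non-phytotoxic solvent with surfactant. After about 10 days in a greenhouse, injury was visually rated against untreated controls (0 = no effect, 100 = complete control).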

morningglory [2] = experiment: Test A postemergence; assay type: in vivo, Ipomoea spp.; settings: Postemergence
Procedure, shortened: as §1

pigweed = experiment: Test A postemergence; assay type: in vivo, Amaranthus retroflexus; settings: Postemergence
Procedure, shortened: as §1

barnyardgrass = experiment: Test B flood; assay type: in vivo, Echinochloa crus-galli; settings: 250 g ai/ha, visual rating on 0 to 100 scale (0 no effect, 100 complete control), 13 to 15 days
Procedure, shortened: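 Each compound is applied to the floodwater of pots holding 2-leaf seedlings, water standing 3 cm over the soil throughout. Plants stay in a greenhouse 13 to 15 days before visual scoring against controls from 0 (no effect) to 100 (complete control).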

crabgrass, large [3] = experiment: Test C preemergence; assay type: in vivo, Digitaria sanguinalis; settings: preemergence; for Plant response rating, Crabgrass, Large: 125 g ai/ha, scale 0 to 100, 0 = no effect, 100 = complete control
Procedure, shortened: (§2)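 In this greenhouse assay, seeded soil (loam plus sand) or emerged seedlings in peat-vermiculite medium were treated with formulated compound. Roughly two weeks later (13–15 days), each species was scored visually relative to controls, from 0 for no effect to 100 for complete control.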

foxtail, giant = experiment: Test C preemergence; assay type: in vivo, Setaria faberii; settings: preemergence; for Plant response rating, Foxtail, Giant: 125 g ai/ha, scale 0 to 100, 0 = no effect, 100 = complete control
Procedure, shortened: as §2

waterhemp = experiment: Test C preemergence; assay type: in vivo, Amaranthus rudis; settings: preemergence; for Plant response rating, Waterhemp: 125 g ai/ha, scale 0 to 100, 0 = no effect, 100 = complete control
Procedure, shortened: as §2

blackgrass = experiment: Test C postemergence; assay type: in vivo, Alopecurus myosuroides; settings: for Plant response rating (scale of 0 to 100 where 0 is no effect and 100 is complete control), Blackgrass: Postemergence, 31 g ai/ha, visually evaluated after 13 to 15 days; for Blackgrass plant response rating / Plant response rating, Blackgrass: postemergence; for Blackgrass plant response rating: 62 g ai/ha, scale 0 to 100
Procedure, shortened: as §2

wheat = experiment: Test C postemergence; assay type: in vivo, Triticum aestivum; settings: postemergence; for Plant response rating, Wheat: 250 g ai/ha, scale 0 to 100 (0 no effect, 100 complete control); for Wheat plant response rating: scale 0 to 100
Procedure, shortened: as §2

corn = experiment: Test C postemergence; assay type: in vivo, Zea mays; settings: for Plant response rating (scale of 0 to 100 where 0 is no effect and 100 is complete control), Corn: Postemergence, 31 g ai/ha, visually evaluated after 13 to 15 days; for Corn plant response rating / Plant response rating, Corn: postemergence; for Corn plant response rating: 62 g ai/ha, scale 0 to 100
Procedure, shortened: as §2

crabgrass, large [4] = experiment: Test C postemergence; assay type: in vivo, Digitaria sanguinalis; settings: for Plant response rating (scale of 0 to 100 where 0 is no effect and 100 is complete control), Crabgrass, Large: Postemergence, 31 g ai/ha, visually evaluated after 13 to 15 days; for Crabgrass, Large plant response rating / Plant response rating, Crabgrass, Large: postemergence; for Crabgrass, Large plant response rating: 62 g ai/ha, scale 0 to 100
Procedure, shortened: as §2

johnsongrass = experiment: Test C postemergence; assay type: in vivo, Sorghum halepense; settings: for Plant response rating (scale of 0 to 100 where 0 is no effect and 100 is complete control), Johnsongrass: Postemergence, 31 g ai/ha, visually evaluated after 13 to 15 days; for Johnsongrass plant response rating / Plant response rating, Johnsongrass: postemergence; for Johnsongrass plant response rating: 62 g ai/ha, scale 0 to 100
Procedure, shortened: as §2

oilseed rape = experiment: Test C postemergence; assay type: in vivo, Brassica napus; settings: postemergence; for Oilseed Rape plant response rating: 62 g ai/ha, scale 0 to 100
Procedure, shortened: as §2

[5] = 125 g ai/ha, 0 to 100 scale, 0 no effect, 100 complete control
[6] = 500 g ai/ha, 0 to 100 scale (0 no effect, 100 complete control)
[7] = 31 g ai/ha, visual rating, scale 0 to 100 (0 no effect, 100 complete control), 13 to 15 days
[8] = 62 g ai/ha, scale 0 to 100 (0 no effect, 100 complete control), 13 to 15 days
[9] = 250 g ai/ha, scale 0 to 100, 0 is no effect, 100 is complete control
[10] = 250 g ai/ha, scale 0 to 100 (0 no effect, 100 complete control)
[11] = 125 g ai/ha, scale 0 to 100, 0 no effect, 100 complete control

Compound | Morningglory plant response rating (0 to 100 scale) (morningglory [1]) | Morningglory plant response rating (morningglory [1]) | Morningglory plant response rating (morningglory [2]; [5]) | Morningglory plant response rating (morningglory [2]; [6]) | Pigweed plant response rating (pigweed; [5]) | Pigweed plant response rating (pigweed; [6]) | Plant response rating, Barnyardgrass (barnyardgrass) | Crabgrass, Large plant response rating (crabgrass, large [3]; [7]) | Crabgrass, Large plant response rating (crabgrass, large [3]; [8]) | Plant response rating, Crabgrass, Large (crabgrass, large [3]; 13 to 15 days) | Crabgrass, Large plant response rating (crabgrass, large [3]; [9]) | Foxtail, Giant plant response rating (foxtail, giant; [7]) | Foxtail, Giant plant response rating (foxtail, giant; [8]) | Plant response rating, Foxtail, Giant (foxtail, giant; 13 to 15 days) | Foxtail, Giant plant response rating (foxtail, giant; [9]) | Waterhemp plant response rating (waterhemp; [7]) | Waterhemp plant response rating (waterhemp; [8]) | Plant response rating, Waterhemp (waterhemp; 13 to 15 days) | Waterhemp plant response rating (waterhemp; [9]) | Plant response rating (scale of 0 to 100 where 0 is no effect and 100 is complete control), Blackgrass (blackgrass) | further results
CCOc1cc(C(=O)NC(C)C)nn1Cc1ccnc(C(F)(F)F)c1 [Compound 188] | 100 | 100 | 70 | 100 | 100 | 100 | 75 | 100 | 100 | 100 | 100 | 100 | 100 | 100 | 100 | 100 | 100 | 100 | 100 | 5 | Blackgrass plant response rating (blackgrass): 5; Plant response rating, Blackgrass (blackgrass; [10]): 70; Plant response rating, Blackgrass (blackgrass; [11]): 40; Plant response rating, Wheat (wheat): 40; Wheat plant response rating (wheat): 15; Plant response rating (scale of 0 to 100 where 0 is no effect and 100 is complete control), Corn (corn): 5; Corn plant response rating (corn): 55; Plant response rating, Corn (corn; [10]): 60; Plant response rating, Corn (corn; [11]): 20; Plant response rating (scale of 0 to 100 where 0 is no effect and 100 is complete control), Crabgrass, Large (crabgrass, large [4]): 5; Crabgrass, Large plant response rating (crabgrass, large [4]): 55; Plant response rating, Crabgrass, Large (crabgrass, large [4]; [10]): 95; Plant response rating, Crabgrass, Large (crabgrass, large [4]; [11]): 70; Plant response rating (scale of 0 to 100 where 0 is no effect and 100 is complete control), Johnsongrass (johnsongrass): 0; Johnsongrass plant response rating (johnsongrass): 0; Plant response rating, Johnsongrass (johnsongrass; [10]): 65; Plant response rating, Johnsongrass (johnsongrass; [11]): 50; Oilseed Rape plant response rating (oilseed rape): 60; Plant response rating, Oilseed Rape (oilseed rape; [10]): 90; Plant response rating, Oilseed Rape (oilseed rape; [11]): 70
CCOc1cc(C(=O)NC2CC2)nn1Cc1ccnc(C(F)(F)F)c1 [Compound 189] | 100 | 100 | 90 | 100 | 80 | 100 | 60 | 100 | 100 | 100 | 100 | 100 | 100 | 100 | 100 | 100 | 100 | 100 | 100 | 5 | Blackgrass plant response rating (blackgrass): 5; Plant response rating, Blackgrass (blackgrass; [10]): 50; Plant response rating, Blackgrass (blackgrass; [11]): 10; Plant response rating, Wheat (wheat): 15; Plant response rating (scale of 0 to 100 where 0 is no effect and 100 is complete control), Corn (corn): 5; Corn plant response rating (corn): 10; Plant response rating, Corn (corn; [10]): 60; Plant response rating, Corn (corn; [11]): 10; Plant response rating (scale of 0 to 100 where 0 is no effect and 100 is complete control), Crabgrass, Large (crabgrass, large [4]): 5; Crabgrass, Large plant response rating (crabgrass, large [4]): 5; Plant response rating, Crabgrass, Large (crabgrass, large [4]; [10]): 90; Plant response rating, Crabgrass, Large (crabgrass, large [4]; [11]): 65; Plant response rating (scale of 0 to 100 where 0 is no effect and 100 is complete control), Johnsongrass (johnsongrass): 0; Johnsongrass plant response rating (johnsongrass): 15; Plant response rating, Johnsongrass (johnsongrass; [10]): 35; Plant response rating, Johnsongrass (johnsongrass; [11]): 5; Oilseed Rape plant response rating (oilseed rape): 60; Plant response rating, Oilseed Rape (oilseed rape; [10]): 90; Plant response rating, Oilseed Rape (oilseed rape; [11]): 65
CCNC(=O)c1cc(CC)n(Cc2ccnc(C(F)(F)F)c2)n1 [Compound 196] | 100 | 100 | 90 | 100 | 100 | 100 | 30 | 98 | 98 | 100 | 100 | 98 | 100 | 100 | 100 | 100 | 100 | 100 | 100 | 20 | Blackgrass plant response rating (blackgrass): 15; Plant response rating, Blackgrass (blackgrass; [10]): 15; Plant response rating, Blackgrass (blackgrass; [11]): 5; Plant response rating, Wheat (wheat): 5; Plant response rating (scale of 0 to 100 where 0 is no effect and 100 is complete control), Corn (corn): 5; Corn plant response rating (corn): 5; Plant response rating, Corn (corn; [10]): 15; Plant response rating, Corn (corn; [11]): 5; Plant response rating (scale of 0 to 100 where 0 is no effect and 100 is complete control), Crabgrass, Large (crabgrass, large [4]): 5; Crabgrass, Large plant response rating (crabgrass, large [4]): 5; Plant response rating, Crabgrass, Large (crabgrass, large [4]; [10]): 25; Plant response rating, Crabgrass, Large (crabgrass, large [4]; [11]): 10; Plant response rating (scale of 0 to 100 where 0 is no effect and 100 is complete control), Johnsongrass (johnsongrass): 0; Johnsongrass plant response rating (johnsongrass): 5; Plant response rating, Johnsongrass (johnsongrass; [10]): 15; Plant response rating, Johnsongrass (johnsongrass; [11]): 10; Oilseed Rape plant response rating (oilseed rape): 5; Plant response rating, Oilseed Rape (oilseed rape; [10]): 70; Plant response rating, Oilseed Rape (oilseed rape; [11]): 10
Cc1cc(C(=O)NC(C)C)nn1Cc1ccnc(C(F)(F)F)c1 [Compound 197] | 100 | 100 | 80 | 100 | 100 | 100 | 10 | 100 | 100 | 100 | 100 | 65 | 98 | 100 | 100 | 100 | 100 | 100 | 100 | 0 | Blackgrass plant response rating (blackgrass): 0; Plant response rating, Blackgrass (blackgrass; [10]): 15; Plant response rating, Blackgrass (blackgrass; [11]): 5; Plant response rating, Wheat (wheat): 5; Wheat plant response rating (wheat): 5; Plant response rating (scale of 0 to 100 where 0 is no effect and 100 is complete control), Corn (corn): 5; Corn plant response rating (corn): 5; Plant response rating, Corn (corn; [10]): 10; Plant response rating, Corn (corn; [11]): 5; Plant response rating (scale of 0 to 100 where 0 is no effect and 100 is complete control), Crabgrass, Large (crabgrass, large [4]): 5; Crabgrass, Large plant response rating (crabgrass, large [4]): 5; Plant response rating, Crabgrass, Large (crabgrass, large [4]; [10]): 15; Plant response rating, Crabgrass, Large (crabgrass, large [4]; [11]): 10; Plant response rating (scale of 0 to 100 where 0 is no effect and 100 is complete control), Johnsongrass (johnsongrass): 0; Johnsongrass plant response rating (johnsongrass): 65; Plant response rating, Johnsongrass (johnsongrass; [10]): 5; Plant response rating, Johnsongrass (johnsongrass; [11]): 0; Oilseed Rape plant response rating (oilseed rape): 5; Plant response rating, Oilseed Rape (oilseed rape; [10]): 10; Plant response rating, Oilseed Rape (oilseed rape; [11]): 20
